# US11932839B2, “Microengineered tissue barrier system” (Georgia Tech Research Corporation, priority 2019, dated 2024)
# Test system: human astrocytes (HA)
# Experiment: LCN2 expression (qRT-PCR) in human astrocytes stimulated with IL-1β
# Format: cell-based
# Conditions: 1 ng/mL or 10 ng/mL IL-1β, 20 h
# Description: In order to compare the structure and function of human astrocytes (HA) in 2D and 3D cultures, HAs were seeded at a density of 1×10^6 cells/mL in Matrigel (Growth factor-reduced; Corning, NY, USA) coated 24-wells and in 3D Matrigel (5 mg/mL). After 1 day of culture, cells were stimulated with 1 ng/mL or 10 ng/mL of recombinant human interleukin-1-beta (IL-1β; Gibco, Grand Island, NY, USA) and incubated for another 20 h for analysis.
# The gene expression level of the reactive gliosis marker in 2D or 3D cultured human astrocytes (HA) was confirmed through qRT-PCR analysis. To analyze glial reactivity of HA in 2D and 3D culture system (n=4), standard qRT-PCR was performed with a StepOnePlus Real-Time PCR system (Applied Biosystems) using TaqMan Fast Universal PCR Master Mix (Applied Biosystems). The target genes were assessed using commercially available primers, and the primers used in the experiment are shown in Table 2 below.
substance,measurement,setting,value
"IL-1β: recombinant human interleukin-1-beta, an inflammatory cytokine",expression level of LCN2,"HA inside 3D Matrigel, FIG. 41",dose-dependently controlled
same,expression level of LCN2,"HA on 2D Matrigel-coated surface, FIG. 40",dose-dependently controlled
